# From patent US11396516B2, “Tricyclic compounds as Cyp1 inhibitors” (The General Hospital Corporation, priority 2017, dated 2022)
# Read-outs that look alike come from different tables or passages of the source.
# Experiments:
# [1] = system: zebrafish embryos treated with DOX (cardiomyopathy phenotype); experiment: Zebrafish doxorubicin cardiomyopathy model (rescue from phenotype); assay type: in vivo; details: for rescue from the doxorubicin cardiomyopathy phenotype: zebrafish co-treated with doxorubicin, inhibitors at 10 μM; for protection against doxorubicin cardiotoxicity in the zebrafish model: co-treatment with doxorubicin
# Procedure: Zebrafish embryos at 30 hours post-fertilization were treated with DOX at 100 μM in 96-well plates as previously described (Liu et al., 2014). Tested compounds were dissolved in DMSO and added at concentrations ranging from 3 nM to 10 μM (n=6 fish per dose; <1% DMSO v/v). The cardiomyopathy phenotype (decreased cardiac contraction, pericardial edema, and decreased tail blood flow) was assessed under light microscopy (5× magnification) at 40 hours post-treatment (hpt). Percent rescue from the cardiomyopathy phenotype was calculated for each concentration tested. Zebrafish were considered to be rescued from DOX-induced cardiomyopathy if all three features of the phenotype were absent. For the tested compounds, each dose-response experiment was repeated three times.
# Dose-response curves were constructed using Prism (GraphPad).
# Zebrafish were treated with DOX and assessed for the development of the cardiomyopathy phenotype (decreased cardiac contraction, pericardial edema, and decreased tail blood flow). Zebrafish were considered to be rescued if all three features of the cardiomyopathy phenotype were absent upon co-treatment with a tested compound. Referring to FIGS. 3-9, data are depicted as mean+/−standard error (n=6 fish per dose; each experiment performed in triplicate).
# HL-1 cardiomyocytes = experiment: Cultured HL-1 cardiomyocyte model (DOX-induced apoptosis, viability); assay type: cell-based, mouse; details: Mus musculus, HL-1; doxorubicin 5 μM, viability after 18 hours, CellTiter-Glo; read-out: EC50 in HL-1 Cells
# Procedure: The cardiomyocyte cell line HL-1 derived from mouse atrial tumor was a gift from W. Claycomb. Cells were cultured as previously published (Claycomb et al., 1998) and treated with doxorubicin 5 μM with or without the tested compounds at a concentration up to 50 μM. Viability was assessed after 18 hours of using a CellTiter-Glo Luminescent assay from Promega. Each dose-response experiment was repeated three times.
# Compounds were tested in HL-1 cultured cardiomyocytes to assess for efficacy in preventing DOX-induced apoptosis. Cell viability was assessed as described in the materials and methods section.
# rad9a = experiment: Zebrafish proteomics; assay type: in vivo; details: zebrafish embryos, visnagin 20 μM
# slc2a1a = experiment: Zebrafish proteomics; assay type: in vivo; details: zebrafish embryos, visnagin 20 μM
# gstp2 = experiment: Zebrafish proteomics; assay type: in vivo; details: zebrafish embryos, visnagin 20 μM
# dhrs13l1 = experiment: Zebrafish proteomics; assay type: in vivo; details: zebrafish embryos, visnagin 20 μM
# sqstm1 = experiment: Zebrafish proteomics; assay type: in vivo; details: zebrafish embryos, visnagin 20 μM
# thbs1b = experiment: Zebrafish proteomics; assay type: in vivo; details: zebrafish embryos, visnagin 20 μM
# LOC100332237 = experiment: Zebrafish proteomics; assay type: in vivo; details: zebrafish embryos, visnagin 20 μM
# CYP2D6 = CYP2D6 (Homo sapiens (Human), UniProt P10635); experiment: CYP inhibition assay, human liver microsomes; assay type: biochemical; details: dextromethorphan 5 μM, reference quinidine
# CYP2D6, sequence (P10635 whole entry): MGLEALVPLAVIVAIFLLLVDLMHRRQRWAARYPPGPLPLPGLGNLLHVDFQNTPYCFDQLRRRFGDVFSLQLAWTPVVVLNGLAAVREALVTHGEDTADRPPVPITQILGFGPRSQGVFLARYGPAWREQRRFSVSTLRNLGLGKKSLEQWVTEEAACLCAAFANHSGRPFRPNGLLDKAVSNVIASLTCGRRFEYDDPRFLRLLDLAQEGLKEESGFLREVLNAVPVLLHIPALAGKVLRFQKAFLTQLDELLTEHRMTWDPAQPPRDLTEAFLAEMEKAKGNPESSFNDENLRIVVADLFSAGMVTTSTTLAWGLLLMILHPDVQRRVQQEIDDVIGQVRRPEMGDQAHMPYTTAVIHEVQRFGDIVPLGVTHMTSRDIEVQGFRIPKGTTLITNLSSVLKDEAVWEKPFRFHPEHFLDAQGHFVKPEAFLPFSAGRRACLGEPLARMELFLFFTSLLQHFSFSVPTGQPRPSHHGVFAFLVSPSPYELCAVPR
# Procedure: (§1) CYP inhibition experiments were performed by Cerep Panlabs (Eurofins) using human liver microsomes and the following substrates: phenacetin 10 μM (CYP1A), buproprion 100 μM (CYP2B6), paclitaxel 10 μM (CYP2C8), diclofenac 10 μM (CYP 2C9), omeprazole 0.5 μM (CYP2C19), dextromethorphan 5 μM (CYP2D6), and testosterone 50 μM (CYP3A). Metabolites of each substrate were measured using LC-MS/MS. Mean percent inhibition was calculated using the following reference inhibitors: furafylline (CYP1A), clopidogrel (CYP2B6), montelukast (CYP2C8), sulfaphenazole (CYP2C9), oxybutynin (CYP2C19), quinidine (CYP2D6), and ketoconazole (CYP3A). […] All concentrations were tested in duplicate to obtain the final results.
# (§2) The ability of the tested compounds to inhibit a panel of CYP enzymes in vitro was assessed using a series of human liver microsome assays.
# CYP2C8 = CYP2C8 (Homo sapiens (Human), UniProt P10632); experiment: CYP inhibition assay, human liver microsomes; assay type: biochemical; details: paclitaxel 10 μM, reference montelukast
# CYP2C8, sequence (P10632 whole entry): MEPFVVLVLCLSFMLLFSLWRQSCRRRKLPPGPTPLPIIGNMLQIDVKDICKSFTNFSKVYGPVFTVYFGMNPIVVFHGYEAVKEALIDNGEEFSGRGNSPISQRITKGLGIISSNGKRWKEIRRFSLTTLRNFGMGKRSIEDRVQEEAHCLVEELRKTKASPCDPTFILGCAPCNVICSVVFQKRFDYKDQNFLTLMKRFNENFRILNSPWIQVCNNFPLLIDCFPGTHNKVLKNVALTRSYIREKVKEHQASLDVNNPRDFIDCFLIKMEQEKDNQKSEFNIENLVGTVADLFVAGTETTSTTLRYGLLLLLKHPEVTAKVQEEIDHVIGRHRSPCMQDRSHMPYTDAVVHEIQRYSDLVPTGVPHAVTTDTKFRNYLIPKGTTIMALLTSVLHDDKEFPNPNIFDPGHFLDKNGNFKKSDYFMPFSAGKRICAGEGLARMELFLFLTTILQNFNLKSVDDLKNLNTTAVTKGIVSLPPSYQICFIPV
# Procedure: as §1, §2
# CYP1A [2] = target: CYP1A (Homo sapiens (Human), UniProt P05177); experiment: CYP inhibition assay, human liver microsomes; assay type: biochemical
# CYP1A (Homo sapiens (Human), UniProt P05177), sequence (P05177 whole entry): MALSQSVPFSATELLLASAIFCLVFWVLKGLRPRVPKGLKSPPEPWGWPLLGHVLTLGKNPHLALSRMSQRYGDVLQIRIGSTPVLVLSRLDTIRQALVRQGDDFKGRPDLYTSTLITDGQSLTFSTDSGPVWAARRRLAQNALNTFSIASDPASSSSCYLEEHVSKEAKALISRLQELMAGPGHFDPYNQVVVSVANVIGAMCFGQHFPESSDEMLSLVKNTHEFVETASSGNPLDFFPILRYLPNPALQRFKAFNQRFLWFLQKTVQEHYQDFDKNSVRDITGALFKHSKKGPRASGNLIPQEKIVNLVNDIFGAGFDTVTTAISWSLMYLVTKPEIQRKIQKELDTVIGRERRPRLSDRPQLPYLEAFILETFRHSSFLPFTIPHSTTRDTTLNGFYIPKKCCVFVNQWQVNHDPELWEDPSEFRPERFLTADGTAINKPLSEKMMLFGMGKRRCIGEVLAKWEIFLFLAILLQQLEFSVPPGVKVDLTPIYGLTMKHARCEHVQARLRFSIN
# Procedure: as §1, §2
# CYP2C9 = CYP2C9 (Homo sapiens (Human), UniProt P11712); experiment: CYP inhibition assay, human liver microsomes; assay type: biochemical; details: diclofenac 10 μM, reference sulfaphenazole
# CYP2C9, sequence (P11712 whole entry): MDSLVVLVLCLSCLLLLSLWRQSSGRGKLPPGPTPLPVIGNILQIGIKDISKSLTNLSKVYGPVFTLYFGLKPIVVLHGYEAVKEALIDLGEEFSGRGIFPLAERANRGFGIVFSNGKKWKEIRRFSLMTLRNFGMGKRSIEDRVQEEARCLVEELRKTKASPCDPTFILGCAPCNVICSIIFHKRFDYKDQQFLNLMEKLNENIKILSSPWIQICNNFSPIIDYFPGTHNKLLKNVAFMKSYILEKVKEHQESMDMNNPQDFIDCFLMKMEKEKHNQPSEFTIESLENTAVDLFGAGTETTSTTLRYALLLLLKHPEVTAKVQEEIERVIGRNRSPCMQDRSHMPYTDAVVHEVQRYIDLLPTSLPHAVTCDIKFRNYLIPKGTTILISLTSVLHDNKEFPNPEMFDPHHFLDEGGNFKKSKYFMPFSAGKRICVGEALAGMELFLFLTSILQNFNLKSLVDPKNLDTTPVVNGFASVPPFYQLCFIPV
# Procedure: as §1, §2
# CYP3A = CYP3A (Homo sapiens, UniProt P08684); experiment: CYP inhibition assay, human liver microsomes; assay type: biochemical; details: testosterone 50 μM, reference ketoconazole
# CYP3A, sequence (P08684 2-503 limits assumed): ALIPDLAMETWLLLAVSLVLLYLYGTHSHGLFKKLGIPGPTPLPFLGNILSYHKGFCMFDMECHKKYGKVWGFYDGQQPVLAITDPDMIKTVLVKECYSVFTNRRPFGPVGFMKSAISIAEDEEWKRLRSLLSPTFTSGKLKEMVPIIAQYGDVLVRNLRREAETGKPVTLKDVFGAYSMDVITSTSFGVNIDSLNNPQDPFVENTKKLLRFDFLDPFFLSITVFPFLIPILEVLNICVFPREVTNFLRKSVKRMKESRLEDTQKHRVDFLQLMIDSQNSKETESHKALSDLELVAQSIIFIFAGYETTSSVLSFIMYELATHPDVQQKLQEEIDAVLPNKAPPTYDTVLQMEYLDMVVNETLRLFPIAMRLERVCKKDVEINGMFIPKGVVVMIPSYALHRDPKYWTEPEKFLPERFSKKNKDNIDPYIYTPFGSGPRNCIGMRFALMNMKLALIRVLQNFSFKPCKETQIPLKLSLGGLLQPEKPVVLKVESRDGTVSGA
# Procedure: as §1, §2
# CYP2C19 = CYP2C19 (Homo sapiens (Human), UniProt P33261); experiment: CYP inhibition assay, human liver microsomes; assay type: biochemical; details: omeprazole 0.5 μM, reference oxybutynin
# CYP2C19, sequence (P33261 whole entry): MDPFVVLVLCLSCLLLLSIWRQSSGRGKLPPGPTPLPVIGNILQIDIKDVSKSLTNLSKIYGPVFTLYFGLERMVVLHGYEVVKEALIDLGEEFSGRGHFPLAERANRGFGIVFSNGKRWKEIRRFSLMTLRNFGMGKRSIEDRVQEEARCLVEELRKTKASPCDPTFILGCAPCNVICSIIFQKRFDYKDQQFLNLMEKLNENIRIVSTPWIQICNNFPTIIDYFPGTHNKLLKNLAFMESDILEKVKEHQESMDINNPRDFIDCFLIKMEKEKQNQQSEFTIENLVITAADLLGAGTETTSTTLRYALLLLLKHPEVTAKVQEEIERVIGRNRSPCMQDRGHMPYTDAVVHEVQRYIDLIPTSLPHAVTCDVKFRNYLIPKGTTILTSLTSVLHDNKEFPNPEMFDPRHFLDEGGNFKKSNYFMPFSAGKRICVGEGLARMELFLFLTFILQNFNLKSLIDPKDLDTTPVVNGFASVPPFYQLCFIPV
# Procedure: as §1, §2
# CYP1A [3] = experiment: Zebrafish proteomics; assay type: in vivo; details: zebrafish embryos, visnagin 20 μM
# Procedure: (§3) The proteomics analysis was carried out as described in the material and methods section. All protein abundance values are normalized to DMSO-treated control zebrafish. * p<0.05 compared to the DMSO control using the Benjamini-Hochberg method of correcting for multiple hypotheses.
# cyp1b1 = experiment: Zebrafish proteomics; assay type: in vivo; details: zebrafish embryos, visnagin 20 μM
# Procedure: as §3
# cyp1c1 = experiment: Zebrafish proteomics; assay type: in vivo; details: zebrafish embryos, visnagin 20 μM
# Procedure: as §3
# zebrafish embryos = experiment: Zebrafish toxicity in the absence of doxorubicin (TD50); details: without doxorubicin
# Procedure: Dose-response curves were constructed using Prism (GraphPad). Raw data representing percent rescue at each dose was log-transformed, and EC50 values were calculated using nonlinear regression analysis. The median toxic dose (TD50) was defined for each compound by assessing for pericardial edema, non-specific deformities, and death in the absence of doxorubicin treatment (data not shown). Concentrations at and above the TD50 (toxic dose) were excluded from dose-response curves.
# [4] = Danio rerio, rescue from DOX (100 μM) cardiomyopathy phenotype, 40 hours post-treatment, read-out: EC50 is zebrafish
# [5] = Danio rerio, rescue from DOX cardiomyopathy phenotype, read-out: EC50 in the zebrafish DOX model
compound,measurement,setting,value
Cc1ccccc1N=Nc1ccc(NC(=O)c2ccnn2C)c(C)c1 [CH-233191],rescue from the doxorubicin cardiomyopathy phenotype,[1],significant rescue
same,protection against doxorubicin cardiotoxicity in the zebrafish model,[1],prevented DOX cardiomyopathy
O=C(NCCCOc1c2ccoc2cc2oc(=O)ccc12)Oc1ccccc1 [Example 6],EC50,HL-1 cardiomyocytes,> 50 µM
same,EC50,[1]; [4],0.033 µM
"CCSC(=O)NCCOc1c2ccoc2cc2oc(=O)ccc12 [Example 5, S-ethyl (2-((7-oxo-7H-furo[3,2-g]chromen-4-yl)oxy)ethyl)carbamothioate]",EC50,[1]; [4],0.003 µM
"CC(C)(C)OC(=O)N1CC(COc2c3ccoc3cc3oc(=O)ccc23)C1 [Example 4, tert-butyl 3-(((7-oxo-7H-furo[3,2-g]chromen-4-yl)oxy)methyl)azetidine-1-carboxylate]",EC50,HL-1 cardiomyocytes,> 50 µM
same,EC50,[1]; [4],0.01 µM
"COc1cc(C=Cc2ccc(OC)cc2OC)cc(OC)c1 [2,4,3′,5′-tetramethoxystilbene]",EC50,[1]; [5],8.6 µM
same,rescue from the doxorubicin cardiomyopathy phenotype,[1],significant rescue
same,protection against doxorubicin cardiotoxicity in the zebrafish model,[1],prevented DOX cardiomyopathy
"CC(C)(C)OC(=O)NCCOc1c2ccoc2cc2oc(=S)ccc12 [Example 7, tert-butyl (2-((7-thioxo-7H-furo[3,2-g]chromen-4-yl)oxy)ethyl)carbamate]",EC50,[1]; [4],0.258 µM
"4-ethoxy-7-methyl-5H-furo[3,2-g][1]-benzopyran-5-one [visnagin]",Protein Abundance (Normalized to DMSO) rad9a,rad9a; 40 hours post-treatment,1.15
same,DOX/DOX+ visnagin protein abundance ratio rad9a,rad9a,2.50
same,Protein Abundance (Normalized to DMSO) slc2a1a,slc2a1a; 40 hours post-treatment,0.83
same,DOX/DOX+ visnagin protein abundance ratio slc2a1a,slc2a1a,2.23
same,Protein Abundance (Normalized to DMSO) gstp2,gstp2; 40 hours post-treatment,0.89
same,DOX/DOX+ visnagin protein abundance ratio gstp2,gstp2,2.14
same,Protein Abundance (Normalized to DMSO) dhrs13l1,dhrs13l1; 40 hours post-treatment,0.89
same,DOX/DOX+ visnagin protein abundance ratio dhrs13l1,dhrs13l1,2.79
same,Protein Abundance (Normalized to DMSO) sqstm1,sqstm1; 40 hours post-treatment,0.98
same,DOX/DOX+ visnagin protein abundance ratio sqstm1,sqstm1,2.43
same,Protein Abundance (Normalized to DMSO) thbs1b,thbs1b; 40 hours post-treatment,0.89
same,DOX/DOX+ visnagin protein abundance ratio thbs1b,thbs1b,2.39
same,Protein Abundance (Normalized to DMSO) LOC100332237,LOC100332237; 40 hours post-treatment,0.96
same,DOX/DOX+ visnagin protein abundance ratio LOC100332237,LOC100332237,2.34
same,Mean % Inhibition CYP2D6,CYP2D6,9.9%
same,Mean % Inhibition CYP2C8,CYP2C8,8.1%
same,IC50,CYP1A [2],0.24 µM
same,Mean % Inhibition CYP2C9,CYP2C9,1.7%
same,Mean % Inhibition CYP3A,CYP3A,4.2%
same,Mean % Inhibition CYP2C19,CYP2C19,1.2%
same,Protein Abundance (Normalized to DMSO) cyp1a,CYP1A [3]; 40 hours post-treatment,0.84
same,DOX/DOX+ visnagin protein abundance ratio cyp1a,CYP1A [3],7.03
same,Protein Abundance (Normalized to DMSO) cyp1b1,cyp1b1; 40 hours post-treatment,0.94
same,DOX/DOX+ visnagin protein abundance ratio cyp1b1,cyp1b1,5.31
same,Protein Abundance (Normalized to DMSO) cyp1c1,cyp1c1; 40 hours post-treatment,0.80
same,DOX/DOX+ visnagin protein abundance ratio cyp1c1,cyp1c1,7.57
O=c1cc(-c2ccccc2)oc2c1ccc1ccccc12 [α-naphthoflavone],EC50,"[1]; rescue from DOX (100 μM) cardiomyopathy phenotype, 40 hours post-treatment, read-out: EC50 is zebrafish",0.293 µM
same,rescue from the doxorubicin cardiomyopathy phenotype,[1],significant rescue
same,protection against doxorubicin cardiotoxicity in the zebrafish model,[1],prevented DOX cardiomyopathy
"O=c1ccc2c(OCC3CO3)c3ccoc3cc2o1 (stereo not drawn) [Example 1, 4-(oxiran-2-ylmethoxy)-7H-furo[3,2-g]chromen-7-one]",EC50,HL-1 cardiomyocytes,> 50 µM
same,EC50,[1]; [4],0.052 µM
c1cc2ccc3cccc4ccc(c1)c2c34 [pyrene],EC50,[1]; [5],3.7 µM
same,rescue from the doxorubicin cardiomyopathy phenotype,[1],significant rescue
same,protection against doxorubicin cardiotoxicity in the zebrafish model,[1],prevented DOX cardiomyopathy
CC(C)(C)OC(=O)NCCOc1c2ccoc2cc2oc(=O)ccc12 [Example 3],EC50,HL-1 cardiomyocytes,> 50 µM
same,EC50,[1]; [4],0.003 µM
"COC(=O)c1csc(C(=O)c2c[nH]c3ccccc23)n1 [ITE, methyl 2-(1H-indole-3-carbonyl)-1,3-thiazole-4-carboxylate]",toxicity to zebrafish embryos without doxorubicin,zebrafish embryos,not toxic
